Test [1] concerns the target hNav 1.7 (Homo sapiens (Human), UniProt Q15858). In words: Electrophysiological evaluation, automated patch clamp IonWorks Quattro (Population Patch Clamp mode). To be noted: HEK293A cells stably expressing hNav 1.7/β1/β2; response to second depolarization pulse, pre-pulse potential set to V1/2; read-out: hNav1.7 IC50. The class given is cell-based. Background: Patch clamp records ionic current or voltage across a cell membrane.

Test [2] relates to mice and rats affected by thermal hyperalgesia. Nature of the test: Thermal hyperalgesia assay.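 Note: measurement times set by the study director and not disclosed.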 The class given is in vivo. To be noted: oral administration, constant dose, against the vehicle treatment group; latency to escape behaviors after thermal stimulation of hind paw.

Chain of hNav 1.7 (Q15858 whole entry): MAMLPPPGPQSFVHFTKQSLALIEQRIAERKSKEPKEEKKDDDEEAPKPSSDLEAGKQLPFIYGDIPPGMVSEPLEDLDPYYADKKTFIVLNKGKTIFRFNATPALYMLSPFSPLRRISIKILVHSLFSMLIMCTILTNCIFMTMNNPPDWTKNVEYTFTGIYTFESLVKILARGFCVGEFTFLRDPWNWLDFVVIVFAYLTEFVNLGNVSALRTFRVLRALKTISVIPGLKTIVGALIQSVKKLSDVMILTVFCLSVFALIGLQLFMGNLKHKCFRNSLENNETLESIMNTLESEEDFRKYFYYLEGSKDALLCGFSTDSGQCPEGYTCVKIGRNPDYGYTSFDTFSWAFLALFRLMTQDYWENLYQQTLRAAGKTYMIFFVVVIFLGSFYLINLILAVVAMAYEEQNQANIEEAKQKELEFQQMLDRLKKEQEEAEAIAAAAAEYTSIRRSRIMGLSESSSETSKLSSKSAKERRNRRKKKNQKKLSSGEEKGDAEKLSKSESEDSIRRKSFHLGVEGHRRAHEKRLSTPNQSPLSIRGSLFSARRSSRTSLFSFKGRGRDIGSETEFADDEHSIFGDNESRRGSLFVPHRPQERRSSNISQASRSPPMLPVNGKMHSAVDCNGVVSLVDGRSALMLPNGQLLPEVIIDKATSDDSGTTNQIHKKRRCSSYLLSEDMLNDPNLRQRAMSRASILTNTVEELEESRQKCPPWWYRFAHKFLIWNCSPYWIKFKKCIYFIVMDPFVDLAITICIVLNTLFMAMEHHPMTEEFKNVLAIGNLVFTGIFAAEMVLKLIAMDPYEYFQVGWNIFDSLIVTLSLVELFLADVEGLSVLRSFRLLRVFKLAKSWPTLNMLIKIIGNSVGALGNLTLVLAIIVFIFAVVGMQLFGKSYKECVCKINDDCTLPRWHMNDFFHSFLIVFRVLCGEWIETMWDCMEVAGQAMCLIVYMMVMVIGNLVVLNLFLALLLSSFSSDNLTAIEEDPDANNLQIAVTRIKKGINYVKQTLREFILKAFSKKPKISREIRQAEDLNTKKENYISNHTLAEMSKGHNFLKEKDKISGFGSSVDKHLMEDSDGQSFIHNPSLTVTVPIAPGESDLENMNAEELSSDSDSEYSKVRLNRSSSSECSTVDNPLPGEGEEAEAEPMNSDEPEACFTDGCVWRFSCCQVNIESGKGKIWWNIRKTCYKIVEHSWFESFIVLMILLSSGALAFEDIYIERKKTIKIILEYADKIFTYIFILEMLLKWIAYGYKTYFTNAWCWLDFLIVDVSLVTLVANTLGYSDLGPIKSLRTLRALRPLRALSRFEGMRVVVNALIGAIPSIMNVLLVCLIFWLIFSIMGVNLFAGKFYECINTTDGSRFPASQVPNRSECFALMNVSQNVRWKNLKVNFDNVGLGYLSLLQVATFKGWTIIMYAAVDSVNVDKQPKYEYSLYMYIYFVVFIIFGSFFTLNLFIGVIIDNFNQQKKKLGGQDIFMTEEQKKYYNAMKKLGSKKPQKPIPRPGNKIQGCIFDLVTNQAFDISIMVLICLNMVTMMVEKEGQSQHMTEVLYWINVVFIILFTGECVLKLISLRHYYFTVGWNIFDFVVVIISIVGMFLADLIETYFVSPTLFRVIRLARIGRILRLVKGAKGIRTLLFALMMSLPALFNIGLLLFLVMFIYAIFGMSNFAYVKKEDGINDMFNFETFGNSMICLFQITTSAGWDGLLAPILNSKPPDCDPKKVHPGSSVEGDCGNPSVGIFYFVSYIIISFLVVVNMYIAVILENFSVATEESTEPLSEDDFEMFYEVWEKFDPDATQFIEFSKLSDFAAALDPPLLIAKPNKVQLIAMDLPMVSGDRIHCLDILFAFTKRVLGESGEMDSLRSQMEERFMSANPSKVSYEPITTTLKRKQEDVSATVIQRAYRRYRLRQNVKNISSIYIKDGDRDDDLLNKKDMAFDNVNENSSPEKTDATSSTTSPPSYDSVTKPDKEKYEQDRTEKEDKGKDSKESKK
Chain of hNav 1.7 (Q07699 19-218 partner): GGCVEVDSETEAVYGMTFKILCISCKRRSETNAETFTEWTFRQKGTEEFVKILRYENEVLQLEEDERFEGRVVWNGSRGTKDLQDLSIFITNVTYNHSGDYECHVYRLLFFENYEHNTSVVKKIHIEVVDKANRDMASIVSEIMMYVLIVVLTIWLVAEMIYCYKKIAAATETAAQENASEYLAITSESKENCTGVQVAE
Chain of hNav 1.7 (O60939 30-215 partner): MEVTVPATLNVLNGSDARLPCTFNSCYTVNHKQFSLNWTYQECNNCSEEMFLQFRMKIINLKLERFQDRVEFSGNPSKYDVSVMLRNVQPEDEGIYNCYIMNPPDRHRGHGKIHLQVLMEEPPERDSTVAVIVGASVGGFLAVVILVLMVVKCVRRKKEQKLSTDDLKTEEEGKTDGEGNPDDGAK

`O=S(=O)(Nc1ccncn1)c1c(F)cc(O[C@H]2CCCC[C@@H]2c2cn[nH]c2)cc1F` (relative stereo) [Example 94, 2,6-Difluoro-4-{[(1S*,2R*)-2-(1H-pyrazol-4-yl)cyclohexyl]oxy}-N-(pyrimidin-4-yl)benzenesulfonamide]: the half-inhibitory concentration (IC50) (usually the concentration that inhibits the measured activity by half) in test [1] was 0.12 µM. Besides, the “Ratio of improving pain score (%)” value in test [2] was “A (“A” when the rate was 61 to 100%)”.
For the molecule `[2H]c1nccc(NS(=O)(=O)c2ccc(O[C@H]3CCC[C@@H]3c3ccnn3CC)c(F)c2F)n1` (relative stereo) [Example 95, 4-{[(1S*,2R*)-2-(1-Ethyl-1H-pyrazol-5-yl)cyclopentyl]oxy}-2,3-difluoro-N-(2-^2H) (pyrimidin-4-yl)benzenesulfonamide], the half-inhibitory concentration (IC50) in test [1] is 0.17 µM. In addition, in test [2], the “Ratio of improving pain score (%)” value was “C (“C” when the rate was 0 to 30%)”.
`CC(=O)Nc1n[nH]cc1[C@H]1CCCC[C@@H]1Oc1cc(F)c(S(=O)(=O)Nc2ccncn2)cc1C` (relative stereo) [Example 96, N-(4-{(1R*,2S*)-2-[5-fluoro-2-methyl-4-((pyrimidin-4-yl)sulfamoyl)phenoxy]cyclohexyl}-1H-pyrazol-3-yl)acetamide]: the IC50 in test [1] came out at 0.25 µM. Besides, the “Ratio of improving pain score (%)” value in test [2] is given as “A (“A” when the rate was 61 to 100%)”.
Take `Cn1nccc1[C@H]1C[C@@H](OCc2ccccc2)C[C@@H]1Oc1cc(F)c(S(=O)(=O)Nc2ccncn2)cc1F` (relative stereo) [Example 97, 4-{[(1S*,2R*,4R*)-4-(Benzyloxy)-2-(1-methyl-1H-pyrazol-5-yl)cyclopentyl]oxy}-2,5-difluoro-N-(pyrimidin-4-yl)benzenesulfonamide]: the concentration for half-maximal inhibition (IC50) in test [1] is 0.034 µM. Further, the “Ratio of improving pain score (%)” value in test [2] is listed as “C (“C” when the rate was 0 to 30%)”.
Turning to `Cn1nccc1[C@H]1C[C@H](OCc2ccccc2)C[C@@H]1Oc1cc(F)c(S(=O)(=O)Nc2ccncn2)cc1F` (relative stereo) [Example 98, 4-{[(1S*,2R*,4S*)-4-(Benzyloxy)-2-(1-methyl-1H-pyrazol-5-yl)cyclopentyl]oxy}-2,5-difluoro-N-(pyrimidin-4-yl)benzenesulfonamide], in test [1], the IC50 was determined as 0.046 µM. Moreover, the “Ratio of improving pain score (%)” value in test [2] is reported as “C (“C” when the rate was 0 to 30%)”.
Regarding `Cc1cc(S(=O)(=O)Nc2ccncn2)c(F)cc1O[C@H]1CCC[C@@H]1c1cn[nH]c1` (relative stereo) [Example 101, 2-Fluoro-5-methyl-4-{[(1S*,2R*)-2-(1H-pyrazol-4-yl)cyclopentyl]oxy}-N-(pyrimidin-4-yl)benzenesulfonamide], the IC50 in test [1] is 0.18 µM. Moreover, in test [2], the “Ratio of improving pain score (%)” value is reported as “B (“B” when the rate was 31 to 60%)”.
As to `O=S(=O)(Nc1ccncn1)c1cc(F)c(O[C@H]2CC(F)(F)CC[C@@H]2c2cn[nH]c2)cc1F` (relative stereo) [Example 103, 4-{[(1S*,2R*)-5,5-Difluoro-2-(1H-pyrazol-4-yl)cyclohexyl]oxy}-2,5-difluoro-N-(pyrimidin-4-yl)benzenesulfonamide], in test [1], the half-inhibitory concentration (IC50) is 0.32 µM. Further, the “Ratio of improving pain score (%)” value in test [2] is “B (“B” when the rate was 31 to 60%)”.
For `O=S(=O)(Nc1ccncn1)c1c(F)cc(O[C@H]2CC(F)(F)CC[C@@H]2c2cn[nH]c2)cc1F` (relative stereo) [Example 104, 4-{[(1S*,2R*)-5,5-Difluoro-2-(1H-pyrazol-4-yl)cyclohexyl]oxy}-2,6-difluoro-N-(pyrimidin-4-yl)benzenesulfonamide], in that order: 0.071 µM and “B (“B” when the rate was 31 to 60%)”.
For `Cn1nccc1[C@H]1CCC(F)(F)C[C@@H]1Oc1ccc(S(=O)(=O)Nc2ccncn2)c(F)c1F` (relative stereo) [Example 105, 4-{[(1S*,2R*)-5,5-Difluoro-2-(1-methyl-1H-pyrazol-5-yl)cyclohexyl]oxy}-2,3-difluoro-N-(pyrimidin-4-yl)benzenesulfonamide], in that order: 0.22 µM and “A (“A” when the rate was 61 to 100%)”.
For `Cn1nccc1[C@H]1CC(F)(F)C[C@@H]1Oc1cc(F)c(S(=O)(=O)Nc2ccncn2)cc1F` (relative stereo) [Example 107, 4-{[(1S*,2R*)-4,4-Difluoro-2-(1-methyl-1H-pyrazol-5-yl)cyclopentyl]oxy}-2,5-difluoro-N-(pyrimidin-4-yl)benzenesulfonamide], in that order: 0.042 µM and “B (“B” when the rate was 31 to 60%)”.
For the molecule `O=S(=O)(Nc1ccncn1)c1ccc(O[C@H]2CCCC[C@@H]2c2cn[nH]c2)cc1F` (relative stereo) [Example 108, 2-Fluoro-4-{[(1S*,2R*)-2-(1H-pyrazol-4-yl)cyclohexyl]oxy}-N-(pyrimidin-4-yl)benzenesulfonamide], in test [1], the IC50 turned out to be 1.7 µM. In addition, the “Ratio of improving pain score (%)” value in test [2] is “A (“A” when the rate was 61 to 100%)”.
For `Cn1nccc1[C@H]1CCC(F)(F)C[C@@H]1Oc1cc(F)c(S(=O)(=O)Nc2ccncn2)c(F)c1` (relative stereo) [Example 109, 4-{[(1S*,2R*)-5,5-Difluoro-2-(1-methyl-1H-pyrazol-5-yl)cyclohexyl]oxy}-2,6-difluoro-N-(pyrimidin-4-yl)benzenesulfonamide], in that order: 0.05 µM and “B (“B” when the rate was 31 to 60%)”.
On to `Cn1nccc1[C@H]1CCC(F)(F)C[C@@H]1Oc1ccc(S(=O)(=O)Nc2ccncn2)c(F)c1` (relative stereo) [Example 110, 4-{[(1S*,2R*)-5,5-Difluoro-2-(1-methyl-1H-pyrazol-5-yl)cyclohexyl]oxy}-2-fluoro-N-(pyrimidin-4-yl)benzenesulfonamide], for which the 50% inhibitory concentration (IC50) in test [1] is 0.3 µM. Besides, the “Ratio of improving pain score (%)” value in test [2] was “B (“B” when the rate was 31 to 60%)”.
In the case of `Cn1nccc1[C@H]1CCC[C@@H]1Oc1cc(F)c(S(=O)(=O)Nc2ccnc(F)n2)c(F)c1` (relative stereo) [Example 111, 2,6-Difluoro-N-(2-fluoropyrimidin-4-yl)-4-{[(1S*,2R*)-2-(1-methyl-1H-pyrazol-5-yl)cyclopentyl]oxy}benzenesulfonamide], the IC50 in test [1] came out at 0.03 µM. In addition, the “Ratio of improving pain score (%)” value in test [2] is “A (“A” when the rate was 61 to 100%)”.
On to `Cn1nccc1[C@H]1CCC[C@@H]1Oc1ccc(S(=O)(=O)Nc2ccnc(F)n2)c(F)c1` (relative stereo) [Example 114, 2-Fluoro-N-(2-fluoropyrimidin-4-yl)-4-{[(1S*,2R*)-2-(1-methyl-1H-pyrazol-5-yl)cyclopentyl]oxy}benzenesulfonamide], for which the IC50 in test [1] was found to be 0.078 µM. Also, the “Ratio of improving pain score (%)” value in test [2] is recorded as “B (“B” when the rate was 31 to 60%)”.
Turning to `CCn1nccc1[C@H]1CCC[C@@H]1Oc1ccc(S(=O)(=O)Nc2ccncn2)c(F)c1` (relative stereo) [Example 115, 4-{[(1S*,2R*)-2-(1-Ethyl-1H-pyrazol-5-yl)cyclopentyl]oxy}-2-fluoro-N-(pyrimidin-4-yl)benzenesulfonamide], the IC50 in test [1] was determined as 0.58 µM. In addition, the “Ratio of improving pain score (%)” value in test [2] was “A (“A” when the rate was 61 to 100%)”.
As to `Nc1n[nH]cc1[C@H]1CCCC[C@@H]1Oc1cc(F)c(S(=O)(=O)Nc2cscn2)c(F)c1` (relative stereo) [Example 116, 4-{[(1S*,2R*)-2-(3-Amino-1H-pyrazol-4-yl)cyclohexyl]oxy}-2,6-difluoro-N-(1,3-thiazol-4-yl)benzenesulfonamide], the IC50 in test [1] amounted to 0.17 µM. The “Ratio of improving pain score (%)” value in test [2] is recorded as “B (“B” when the rate was 31 to 60%)”.
With `CO[C@@H]1C[C@H](Oc2cc(F)c(S(=O)(=O)Nc3ccncn3)cc2F)[C@@H](c2ccnn2C)C1` (relative stereo) [Example 120, 2,5-Difluoro-4-{[(1S*,2R*,4S*)-4-methoxy-2-(1-methyl-1H-pyrazol-5-yl)cyclopentyl]oxy}-N-(pyrimidin-4-yl)benzenesulfonamide], the 50% inhibitory concentration (IC50) in test [1] stood at 0.27 µM. In addition, the “Ratio of improving pain score (%)” value in test [2] is “C (“C” when the rate was 0 to 30%)”.
On to `Cc1cc(S(=O)(=O)Nc2nncs2)c(F)cc1O[C@H]1CC(F)(F)CC[C@@H]1c1ccnn1C` (relative stereo) [Example 125, 4-{[(1S*,2R*)-5,5-Difluoro-2-(1-methyl-1H-pyrazol-5-yl)cyclohexyl]oxy}-2-fluoro-5-methyl-N-(1,3,4-thiadiazol-2-yl)benzenesulfonamide], for which the 50% inhibitory concentration (IC50) in test [1] is 0.2 µM. Further, the “Ratio of improving pain score (%)” value in test [2] is “C (“C” when the rate was 0 to 30%)”.
As to `Cc1cc(S(=O)(=O)Nc2ccncn2)c(F)cc1O[C@H]1CCC(F)(F)C[C@@H]1c1ccnn1C` (relative stereo) [Example 126, 4-{[(1S*,2R*)-4,4-Difluoro-2-(1-methyl-1H-pyrazol-5-yl)cyclohexyl]oxy}-2-fluoro-5-methyl-N-(pyrimidin-4-yl)benzenesulfonamide], the concentration for half-maximal inhibition (IC50) in test [1] turned out to be 0.014 µM. Moreover, the “Ratio of improving pain score (%)” value in test [2] is “C (“C” when the rate was 0 to 30%)”.
With `Cc1cc(S(=O)(=O)Nc2ccncn2)c(F)cc1O[C@H]1CC(F)(F)CC[C@@H]1c1cn[nH]c1` (relative stereo) [Example 127, 4-{[(1S*,2R*)-5,5-Difluoro-2-(1H-pyrazol-4-yl)cyclohexyl]oxy}-2-fluoro-5-methyl-N-(pyrimidin-4-yl)benzenesulfonamide], in test [1], the IC50 was found to be 0.12 µM. Besides, in test [2], the “Ratio of improving pain score (%)” value is on record as “A (“A” when the rate was 61 to 100%)”.
For the molecule `Cn1nccc1[C@H]1CC(F)(F)CC[C@@H]1Oc1cc(F)c(S(=O)(=O)Nc2ccncn2)c(F)c1` (relative stereo) [Example 129, 4-{[(1S*,2R*)-4,4-Difluoro-2-(1-methyl-1H-pyrazol-5-yl)cyclohexyl]oxy}-2,6-difluoro-N-(pyrimidin-4-yl)benzenesulfonamide], in test [1], the IC50 came to 0.1 µM. The “Ratio of improving pain score (%)” value in test [2] is recorded as “C (“C” when the rate was 0 to 30%)”.
For the molecule `Cn1nccc1[C@H]1CC(F)(F)CC[C@@H]1Oc1cc(F)c(S(=O)(=O)Nc2ccncn2)cc1Cl` (relative stereo) [Example 131, 5-Chloro-4-{[(1S*,2R*)-4,4-difluoro-2-(1-methyl-1H-pyrazol-5-yl)cyclohexyl]oxy}-2-fluoro-N-(pyrimidin-4-yl)benzenesulfonamide], in test [1], the IC50 was found to be 0.059 µM. Moreover, in test [2], the “Ratio of improving pain score (%)” value is recorded as “C (“C” when the rate was 0 to 30%)”.

Source of the values: US9493448B2, “Cycloalkane derivatives” (Daiichi Sankyo Company, Limited, priority 2012, dated 2016).
